From ChEMBL document CHEMBL1130329, “Coumarin-based inhibitors of HIV integrase” (J Med Chem, 1997)
Where “and” joins values, the source holds several entries; their conditions need not be identical. Identical values can stand only once.

Legend:
[1] = molecular target: T1, Human immunodeficiency virus type 1 integrase (Human immunodeficiency virus 1, UniProt Q7ZJM1); assay: (§1) Inhibitory activity against 3'-processing of DNA by HIV-1 integrase; format: functional
[2] = molecular target: T1, Human immunodeficiency virus type 1 integrase; assay: Integration of DNA by HIV -1 integrase
[3] = molecular target: T1, Human immunodeficiency virus type 1 integrase; assay: Inhibitory activity against 3'-processing of DNA byHIV-1 integrase; format: functional
[4] = Delta Logarithm of Partition Coefficient value was determined.; conditions: octanol/water
[5] = molecular target: T1, Human immunodeficiency virus type 1 integrase; assay: as §1

T1 sequence (Q7ZJM1 whole entry): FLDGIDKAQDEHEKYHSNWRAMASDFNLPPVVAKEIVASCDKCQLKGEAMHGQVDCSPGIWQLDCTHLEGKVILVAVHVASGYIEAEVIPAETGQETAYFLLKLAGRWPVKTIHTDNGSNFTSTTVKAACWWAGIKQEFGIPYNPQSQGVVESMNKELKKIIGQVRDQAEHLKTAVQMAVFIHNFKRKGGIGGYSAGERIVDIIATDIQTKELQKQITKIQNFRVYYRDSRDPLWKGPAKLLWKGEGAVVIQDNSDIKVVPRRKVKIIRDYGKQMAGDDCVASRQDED

Row | Compound | IC50 [1] | IC50 [2] | IC50 [3] | delta Log P [4] | IC50 [5]
1 | O=c1oc2ccccc2c(O)c1Cc1c(O)c2ccccc2oc1=O [DICUMAROL] | > 300 µM | > 100 µM | – | – | –
2 | O=c1c(Cc2ccccc2Cc2c(O)oc3ccccc3c2=O)c(O)oc2ccccc12 | 46 µM and 45 µM | 20.5 µM and 33.2 µM | – | – | –
3 | O=c1c(C(c2ccc(C(c3c(O)oc4cc(O)ccc4c3=O)c3c(O)oc4cc(O)ccc4c3=O)cc2)c2c(O)oc3cc(O)ccc3c2=O)c(O)oc2cc(O)ccc12 | 0.37 µM | 0.33 µM | – | – | –
4 | O=c1c(C(c2cccc(C(c3c(O)oc4ccccc4c3=O)c3c(O)oc4ccccc4c3=O)c2)c2c(O)oc3ccccc3c2=O)c(O)oc2ccccc12 | 3 µM and 2.9 µM | 1.2 µM and 2 µM | – | – | –
5 | O=c1cc(O)c2ccccc2o1 [4-HYDROXYCOUMARINS] | > 100 µM | > 100 µM | – | – | –
6 | O=c1oc2ccccc2c(O)c1C1c2ccccc2Oc2c1c(=O)oc1ccccc21 (centres undefined) | 121 µM and 127 µM | 122 µM and 163 µM | – | – | –
7 | O=c1c(C(c2cccs2)c2c(O)oc3ccccc3c2=O)c(O)oc2ccccc12 | 100 µM and 105 µM | 148 µM and 149 µM | 110 µM | 0.86 | –
8 | O=c1c(C(c2ccccc2)c2c(O)oc3cc(O)ccc3c2=O)c(O)oc2cc(O)ccc12 | 17.2 µM | 22.2 µM | – | – | –
9 | O=c1c(C(c2ccc3ccccc3c2)c2c(O)oc3ccccc3c2=O)c(O)oc2ccccc12 | 19 µM and 20 µM (2×) | 16 µM and 9 µM | – | 2.6 | –
10 | O=c1c(C(c2ccc(-c3ccccc3)cc2)c2c(O)oc3ccccc3c2=O)c(O)oc2ccccc12 | 14 µM and 16 µM and 15 µM | 13 µM and 28 µM | – | 3.33 | –
11 | O=c1oc2ccccc2c(O)c1C1c2c(c3ccccc3oc2=O)Oc2c1c(=O)oc1ccccc21 | 35.7 µM | 22.5 µM | – | – | –
12 | O=c1c(Cc2ccc(Cc3c(O)oc4ccccc4c3=O)cc2)c(O)oc2ccccc12 | 80.6 µM | 69.2 µM | – | – | –
13 | COc1cc(C(c2c(O)c3ccccc3oc2=O)c2c(O)c3ccccc3oc2=O)ccc1O | 198 µM and 177 µM and 190 µM | 76 µM and 108 µM | – | 1.05 | –
14 | O=c1c(C(c2cc(OCc3ccccc3)cc(OCc3ccccc3)c2)c2c(O)oc3ccccc3c2=O)c(O)oc2ccccc12 | 8 µM and 11 µM and 10 µM | 12 µM and 3.7 µM | – | 5.15 | –
15 | O=c1c(C(c2ccc(O)cc2)c2c(O)oc3ccccc3c2=O)c(O)oc2ccccc12 | 141 µM and 128 µM and 130 µM | 75 µM and 74 µM | – | 1.1 | –
16 | 3,3'-(Ferrocenomethylene)bis[4-hydroxycoumarin] | 11 µM and 3.6 µM | 7 µM and 5 µM | – | – | –
17 | O=c1c(C(c2cccnc2)c2c(O)oc3cc(O)ccc3c2=O)c(O)oc2cc(O)ccc12 | 62 µM and 116 µM | 25 µM and 97 µM | – | – | 89 µM

Row | Compound | IC50 [1] | IC50 [2] | IC50 [3] | delta Log P [4] | IC50 [5]
18 | O=c1c(C(c2ccco2)c2c(O)oc3ccccc3c2=O)c(O)oc2ccccc12 | 75 µM and 34 µM and 54 µM | 133 µM and 122 µM | – | 0.45 | –
19 | O=c1c(C(c2ccccc2)c2c(O)oc3ccccc3c2=O)c(O)oc2ccccc12 | 43.4 µM and 43 µM | 38.8 µM | – | 1.6 | –
20 | O=C(O)c1ccc(C(c2c(O)oc3ccccc3c2=O)c2c(O)oc3ccccc3c2=O)cc1 | 66 µM and 48 µM | 54 µM and 49 µM | – | – | –
21 | O=c1c(C(c2ccc3c(c2)Cc2ccccc2-3)c2c(O)oc3ccccc3c2=O)c(O)oc2ccccc12 | 10 µM (2×) and 11 µM | 9.5 µM and 7.8 µM | – | 3.4 | –
22 | O=c1c(C(c2ccc(/C=C/c3ccccc3)cc2)c2c(O)oc3ccccc3c2=O)c(O)oc2ccccc12 | 5.5 µM and 9.2 µM and 7 µM | 3.7 µM and 9.5 µM | – | 4.14 | –
23 | O=c1c(C(c2ccccn2)c2c(O)oc3cc(O)ccc3c2=O)c(O)oc2cc(O)ccc12 | 94 µM and 84 µM | 49 µM and 70 µM | – | – | 81 µM
24 | O=c1c(C(c2ccc(OCc3ccccc3)cc2)c2c(O)oc3ccccc3c2=O)c(O)oc2ccccc12 | 19 µM and 8.5 µM and 20 µM | 14 µM and 24 µM | – | 3.06 | –
25 | CN(C)c1ccc(C(c2c(O)oc3ccccc3c2=O)c2c(O)oc3ccccc3c2=O)cc1 | 100 µM and 190 µM | 50 µM and 88 µM | 88 µM | 1.88 | –
26 | O=c1c(Cc2c(O)oc3cc(O)ccc3c2=O)c(O)oc2cc(O)ccc12 | 46.3 µM | 44.9 µM | – | – | –
27 | O=c1c(C(c2ccc([N+](=O)[O-])cc2)c2c(O)oc3ccccc3c2=O)c(O)oc2ccccc12 | 58 µM and 54 µM | 12 µM and 24 µM | 50 µM | 1.37 | –
28 | O=c1c(C(c2cnc3ccccc3c2)c2c(O)oc3ccccc3c2=O)c(O)oc2ccccc12 | 40 µM and 29 µM and 35 µM | 23 µM and 14 µM | – | 1.6 | –
29 | O=c1c(Cc2cccc(Cc3c(O)oc4ccccc4c3=O)c2)c(O)oc2ccccc12 | 34 µM and 40 µM | 11.1 µM and 27.5 µM | – | – | –
30 | O=c1cc(O)c2ccc(O)cc2o1 | 300 µM | 325 µM | – | – | –
31 | O=c1c(C(c2ccc(/C=C/c3ccccc3)cc2)c2c(O)oc3cc(O)ccc3c2=O)c(O)oc2cc(O)ccc12 | – | 1.8 µM | – | – | –
32 | O=c1c(C(c2ccc3ccccc3c2)c2c(O)oc3cc(O)ccc3c2=O)c(O)oc2cc(O)ccc12 | 4.2 µM | 3.55 µM | – | – | –
33 | O=c1c(C(c2ccc(C(c3c(O)oc4ccccc4c3=O)c3c(O)oc4ccccc4c3=O)cc2)c2c(O)oc3ccccc3c2=O)c(O)oc2ccccc12 | 2 µM | – | – | 2.84 | –
